Results published in US9023817B2, “Use of albiflorin for anti-depression” (priority 2009, dated 2015).

Legend:
Format in all cases: in vivo, SD rats
[1] = tested on: rats with chronic stress induced depression model; experiment: Open-field test, chronic stress induced depression; details: 3.5 mg/kg/day gavage for 21 days; 3 minutes
Procedure: (§1) The gavage was carried out along with the model establishment, once a day, for 21 days. […] Referring to the methods in the literature (Xu Jing, Li Xiaoqiu, Establishment and evaluation of the model of chronic stress induced depression, Chinese Journal of Behavioral Medical Science, 2003, 12(1): 14 16), the model was established (i.e., establishing animal model of anti-depression by means of CUMS): the foot electric shock (voltage: […] (5 minutes), drying at 45° C. (5 minutes), tail nipping (1 min), wet feeding (wet mat), reversed day and night (24 hours), fasting (24 hours), water deprivation (24 hours) were randomly scheduled within 21 days, one kind of stimulations was given for each day, except for the animals of vehicle group, the others were separately caged with free diet, at the room temperature of (24±1)° C., with the relative humidity of (60±10)%. The open-field device was of 40 cm in height, 80 cm in both length and width, without cap, the inner walls and the bottom of the device are black, and the bottom was divided into 25 squares with equal area. The numbers of squares that the animals pass through were designated as the score of horizontal movement, and the numbers of standing (with the forelegs above 1 cm away from the ground) were designated as the score of vertical movement. Each animal was measured for one time, 3 minutes for each measurement. All parameters to be tested were expressed as Mean±SD (X±s), and tested by means of analysis of variance (ANOVA) in SPSS 12.0 software (purchased from SPSS Inc., USA), p<0.05 means that there was a significant difference.

[2] = tested on: rats with chronic stress induced depression model; experiment: Body weights of rats with chronic stress induced depression (CUMS)
Procedure: as §1, with “(60±10)%.” for “(60±10)%. The open-field device was of 40 cm in height, 80 cm in both length and width, without cap, the inner walls and the bottom of the device are black, and the bottom was divided into 25 squares with equal area. The numbers of squares that the animals pass through were designated as the score of horizontal movement, and the numbers of standing (with the forelegs above 1 cm away from the ground) were designated as the score of vertical movement. Each animal was measured for one time, 3 minutes for each measurement.”

[3] = tested on: rats with chronic stress induced depression model; experiment: Consumption of 1% aqueous sucrose, chronic stress induced depression; details: 1% aqueous sucrose for 1 hour
Procedure: The gavage was carried out along with the model establishment, once a day, for 21 days. […] Referring to the methods in the literature (Xu Jing, Li Xiaoqiu, Establishment and evaluation of the model of chronic stress induced depression, Chinese Journal of Behavioral Medical Science, 2003, 12(1): 14 16), the model was established (i.e., establishing animal model of anti-depression by means of CUMS): the foot electric shock (voltage: […] (5 minutes), drying at 45° C. […] All parameters to be tested were expressed as Mean±SD (X±s), and tested by means of analysis of variance (ANOVA) in SPSS 12.0 software (purchased from SPSS Inc., USA), p<0.05 means that there was a significant difference.

C[C@]12C[C@@H](O)[C@@H]3C[C@@]1(O[C@@H]1O[C@H](CO)[C@@H](O)[C@H](O)[C@H]1O)[C@@]3(COC(=O)c1ccccc1)C(=O)O2 [Albiflorin]
Score of horizontal movement [1]: 21.42 ± 20.38 | Score of vertical movement [1]: 4.67 ± 6.87 | body weights ([2]; 3.5 mg/kg/day gavage, Day 0): 256.83 ± 11.49 g | body weights ([2]; 3.5 mg/kg/day gavage, Day 7): 265.65 ± 11.23 g | body weights ([2]; 3.5 mg/kg/day gavage, Day 14): 270.75 ± 18.15 g | body weights ([2]; 3.5 mg/kg/day gavage, Day 21): 271.07 ± 19.06 g | body weights ([2]; 7 mg/kg/day gavage, Day 0): 250.18 ± 13.45 g | body weights ([2]; 7 mg/kg/day gavage, Day 7): 265.65 ± 12.44 g | body weights ([2]; 14 mg/kg/day gavage, Day 0): 255.84 ± 11.69 g | body weights ([2]; 14 mg/kg/day gavage, Day 7): 268.11 ± 17.50 g | comsumption of aqeous sucrose ([3]; 3.5 mg/kg/day gavage, Day 0): 12.75 ± 5.24 mL | comsumption of aqeous sucrose ([3]; 3.5 mg/kg/day gavage, Day 7): 12.67 ± 5.42 mL | comsumption of aqeous sucrose ([3]; 3.5 mg/kg/day gavage, Day 14): 11.83 ± 5.15 mL | comsumption of aqeous sucrose ([3]; 3.5 mg/kg/day gavage, Day 21): 11.92 ± 3.96 mL | comsumption of aqeous sucrose ([3]; 7 mg/kg/day gavage, Day 0): 12.67 ± 5.37 mL | comsumption of aqeous sucrose ([3]; 7 mg/kg/day gavage, Day 7): 13.42 ± 5.37 mL | comsumption of aqeous sucrose ([3]; 14 mg/kg/day gavage, Day 0): 12.50 ± 5.32 mL | comsumption of aqeous sucrose ([3]; 14 mg/kg/day gavage, Day 7): 14.08 ± 3.65 mL | comsumption of aqeous sucrose ([3]; 14 mg/kg/day gavage, Day 14): 13.00 ± 3.74 mL
